Consider 24 molecules from ChEMBL document CHEMBL1157187, “Chemical synthesis of 2beta-amino-5alpha-androstane-3alpha,17beta-diol N-derivatives and their antiproliferative effect on HL-60 human leukemia cells” (Bioorg Med Chem, 2008).

Test [1] deals with HL-60. Briefly: Growth inhibition of human HL60 cells at 1 uM after 3 days. Format: functional. As to conditions: HL-60, 72 h.
Test [2] deals with HL-60. Briefly: Growth inhibition of human HL60 cells at 10 uM after 3 days. Format: functional. As to conditions: HL-60, 72 h.
The test system of test [3] is HL-60. Briefly: Increase in CD11b/CD14 double expression in human HL60 cells. Format: functional.
The test system of test [4] is HL-60. Briefly: Growth inhibition of human HL60 cells after 3 days. Format: functional, cell-based. Conditions: HL-60, 72 h.
Test [5] deals with HL-60. As to the kind of experiment: Increase in CD11b expression in human HL60 cells. Format: functional.

In the test on HL-60 [1], `CCN1CCN([C@H]2C[C@@]3(C)[C@@H](CC[C@@H]4[C@@H]3CC[C@]3(C)[C@@H](O)CC[C@@H]43)C[C@@H]2O)CC1` had an inhibition at 1 µM of 0%. Besides, in the test on HL-60 [2], the inhibition at 10 µM was found to be 4.8%.
On the same counts, the results for `C[C@]12C[C@H](N3CCN(CCO)CC3)[C@@H](O)C[C@@H]1CC[C@@H]1[C@@H]2CC[C@]2(C)[C@@H](O)CC[C@@H]12` are 0.8% and 17.7%.
For `CCCCCCCCCN1CCN([C@H]2C[C@@]3(C)[C@@H](CC[C@@H]4[C@@H]3CC[C@]3(C)[C@@H](O)CC[C@@H]43)C[C@@H]2O)CC1`, the Activity amounted to 32% with HL-60 [3] and 55% with HL-60 [5]. The same molecule gave an inhibition at 1 µM in the test with HL-60 [1] of 9.1%. For the same molecule, testing at 10 µM in the test with HL-60 [2] gave an inhibition of 99.8%. The molecule further showed an IC50 with HL-60 [4] of 4.2 µM.
Molecule `C[C@]12C[C@H](N3CCN(c4ccccc4)CC3)[C@@H](O)C[C@@H]1CC[C@@H]1[C@@H]2CC[C@]2(C)[C@@H](O)CC[C@@H]12` displayed an inhibition at 1 µM in the test on HL-60 [1] of 7%. In the test on HL-60 [2], this molecule yielded an inhibition at 10 µM of 36.6%.
For the molecule `C[C@]12C[C@H](N3CCCCC3)[C@@H](O)C[C@@H]1CC[C@@H]1[C@@H]2CC[C@]2(C)[C@@H](O)CC[C@@H]12`, in the test on HL-60 [1], testing at 1 µM gave an inhibition of 0%. The molecule also gave an inhibition at 10 µM with HL-60 [2] of 1.5%.
On the same counts, the results for `C[C@]12C[C@H](N3CCNCC3)[C@@H](O)C[C@@H]1CC[C@@H]1[C@@H]2CC[C@]2(C)[C@@H](O)CC[C@@H]12` are 6.9% and 5.9%.
On the same counts, the results for `CC(=O)N1CCN([C@H]2C[C@@]3(C)[C@@H](CC[C@@H]4[C@@H]3CC[C@]3(C)[C@@H](O)CC[C@@H]43)C[C@@H]2O)CC1` are 0% and 0%.
Turning to `CCCC(=O)N1CCN([C@H]2C[C@@]3(C)[C@@H](CC[C@@H]4[C@@H]3CC[C@]3(C)[C@@H](O)CC[C@@H]43)C[C@@H]2O)CC1`, in the test with HL-60 [1], testing at 1 µM gave an inhibition of 0%. Further, 10 µM produced 4.6% inhibition in the test with HL-60 [2].
The corresponding values for `C[C@]12C[C@H](N3CCCC3)[C@@H](O)C[C@@H]1CC[C@@H]1[C@@H]2CC[C@]2(C)[C@@H](O)CC[C@@H]12` are 0% and 9.9%.
Turning to `CCC(=O)N1CCN([C@H]2C[C@@]3(C)[C@@H](CC[C@@H]4[C@@H]3CC[C@]3(C)[C@@H](O)CC[C@@H]43)C[C@@H]2O)CC1`, in the test on HL-60 [1], at 1 µM the inhibition was 0%. The molecule also came in with an inhibition at 10 µM in the test with HL-60 [2] of 0%.
For the molecule `C[C@]12C[C@H](N3CCOCC3)[C@@H](O)C[C@@H]1CC[C@@H]1[C@@H]2CC[C@]2(C)[C@@H](O)CC[C@@H]12`, the inhibition at 1 µM with HL-60 [1] worked out at 14.9%. In the test on HL-60 [2], this molecule came in with an inhibition at 10 µM of 8.7%.
In the test with HL-60 [1], `C[C@]12C[C@H](n3cccn3)[C@@H](O)C[C@@H]1CC[C@@H]1[C@@H]2CC[C@]2(C)[C@@H](O)CC[C@@H]12` showed an inhibition at 1 µM of 8.4%. Besides, in the test on HL-60 [2], testing at 10 µM gave an inhibition of 12.8%.
The corresponding values for `C[C@]12C[C@H](N3CCC(Cc4ccccc4)CC3)[C@@H](O)C[C@@H]1CC[C@@H]1[C@@H]2CC[C@]2(C)[C@@H](O)CC[C@@H]12` are 9.9% and 57.9%.
In turn, `C[C@]12C[C@H](C3NCCc4ccccc43)[C@@H](O)C[C@@H]1CC[C@@H]1[C@@H]2CC[C@]2(C)[C@@H](O)CC[C@@H]12` (stereo partly drawn) returned an inhibition at 1 µM in the test with HL-60 [1] of 3.4%. Besides, in the test with HL-60 [2], the inhibition at 10 µM worked out at 29.6%.
In the case of `CCCCCCCCN[C@H]1C[C@@]2(C)[C@@H](CC[C@@H]3[C@@H]2CC[C@]2(C)[C@@H](O)CC[C@@H]32)C[C@@H]1O`, the Activity worked out at 10% in the test with HL-60 [3] and 29% in the test on HL-60 [5]. In the test with HL-60 [1], this molecule returned an inhibition at 1 µM of 0%. This molecule also yielded an inhibition at 10 µM in the test on HL-60 [2] of 99.2%. The IC50 in the test on HL-60 [4] worked out at 6.4 µM.
`C[C@]12C[C@H](N3CCCCCC3)[C@@H](O)C[C@@H]1CC[C@@H]1[C@@H]2CC[C@]2(C)[C@@H](O)CC[C@@H]12` had an inhibition at 1 µM with HL-60 [1] of 0%. Further, the inhibition at 10 µM in the test on HL-60 [2] was found to be 3.4%.
For the molecule `C[C@]12C[C@H](N3CCN(Cc4ccc5c(c4)OCO5)CC3)[C@@H](O)C[C@@H]1CC[C@@H]1[C@@H]2CC[C@]2(C)[C@@H](O)CC[C@@H]12`, in the test with HL-60 [1], testing at 1 µM gave an inhibition of 0%. For the same molecule, the inhibition at 10 µM in the test on HL-60 [2] came to 26.1%.
Turning to `C[C@]12C[C@H](NCCC(c3ccccc3)c3ccccc3)[C@@H](O)C[C@@H]1CC[C@@H]1[C@@H]2CC[C@]2(C)[C@@H](O)CC[C@@H]12`, the Activity in the test on HL-60 [3] came to 39%; in the test on HL-60 [5], 58%. In the test with HL-60 [1], testing at 1 µM gave an inhibition of 12.9%. Also, in the test with HL-60 [2], 10 µM produced 95.2% inhibition. For the same molecule, in the test with HL-60 [4], half-maximal inhibition (IC50) required 3.1 µM.
Take `C[C@]12C[C@H](N3CCCNCC3)[C@@H](O)C[C@@H]1CC[C@@H]1[C@@H]2CC[C@]2(C)[C@@H](O)CC[C@@H]12`: in the test with HL-60 [1], at 1 µM the inhibition was 1%. Further, in the test with HL-60 [2], 10 µM produced 21.4% inhibition.
In turn, `C[C@]12C[C@H](N3CCN(c4ccc([N+](=O)[O-])cc4)CC3)[C@@H](O)C[C@@H]1CC[C@@H]1[C@@H]2CC[C@]2(C)[C@@H](O)CC[C@@H]12` showed an inhibition at 1 µM in the test on HL-60 [1] of 12.5%. Also, the inhibition at 10 µM with HL-60 [2] came to 92.2%.
For `C[C@]12C[C@H](N3CCN(c4ccccn4)CC3)[C@@H](O)C[C@@H]1CC[C@@H]1[C@@H]2CC[C@]2(C)[C@@H](O)CC[C@@H]12`, in the test with HL-60 [1], at 1 µM the inhibition was 0%. The same molecule showed an inhibition at 10 µM in the test on HL-60 [2] of 26.1%.
As to `C[C@]12C[C@H](N3CCN(c4ccc(F)cc4)CC3)[C@@H](O)C[C@@H]1CC[C@@H]1[C@@H]2CC[C@]2(C)[C@@H](O)CC[C@@H]12`, the inhibition at 1 µM in the test with HL-60 [1] came to 0%. Moreover, the inhibition at 10 µM with HL-60 [2] worked out at 10.1%.
On the same counts, the results for `C[C@]12C[C@H](N3CCC(N4CCCCC4)CC3)[C@@H](O)C[C@@H]1CC[C@@H]1[C@@H]2CC[C@]2(C)[C@@H](O)CC[C@@H]12` are 0% and 77.8%.
`COc1cccc2c1C(=O)c1c(O)c3c(c(O)c1C2=O)C[C@@](O)(C(=O)CO)C[C@@H]3O[C@H]1C[C@H](N)[C@H](O)[C@H](C)O1` [DOXORUBICIN] registered an inhibition at 1 µM with HL-60 [1] of 91.8%. Besides, in the test on HL-60 [2], the inhibition at 10 µM was found to be 94.6%. In the test on HL-60 [4], this molecule came in with an IC50 of 0.1 µM.

As usually defined, the inhibition is the share of the control response that was lost under treatment. High values mean a response far below the control, low ones a response near the control. By IC50 is commonly meant the concentration at which inhibition is half-maximal. A low value points to higher potency.
